Test results reported in the supplement of paper PMC10307832.

How the values were obtained:
Assay in all cases: relative viability (nuclei count vs DMSO), 5 days (fraction); higher = more cells survive
NCI-H1355 = test system: NCI-H1355
In short: (§1)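 Relative viability divides the nuclei count in treated wells by that in vehicle wells. Lung cancer cell lines were seeded in 1536-well plates, dosed by pin tool the next day, and fixed and stained after 5 days in one step with final 0.05% Triton X-100, 1% formaldehyde and 1 ug/ml Hoechst. Dosing was a single drug or a fixed anchor-drug dose plus five library-drug doses (not always all listed) in √10 steps, and values are medians of duplicate plates imaged at 4×.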

NCI-H520 = test system: NCI-H520
In short: as §1

NCI-H1755 = test system: NCI-H1755
In short: as §1

PC-14 = test system: PC-14
In short: as §1

HCC-827 = test system: HCC-827
In short: as §1

NCI-H1975 = test system: NCI-H1975
In short: as §1

H3255 = test system: H3255
In short: as §1

PC-3 [JPC-3] = test system: PC-3 [JPC-3]
In short: as §1

LK-2 = test system: LK-2
In short: as §1

RERF-LC-KJ = test system: RERF-LC-KJ
In short: as §1

NCI-H1563 = test system: NCI-H1563
In short: as §1

NCI-H2342 = test system: NCI-H2342
In short: as §1

NCI-H2405 = test system: NCI-H2405
In short: as §1

NCI-H1734 = test system: NCI-H1734
In short: as §1

EKVX = test system: EKVX
In short: as §1

NCI-H322M = test system: NCI-H322M
In short: as §1

HCC-15 = test system: HCC-15
In short: as §1

LCLC-97TM1 = test system: LCLC-97TM1
In short: as §1

NCI-H2228 = test system: NCI-H2228
In short: as §1

NCI-H1650 = test system: NCI-H1650
In short: as §1

NCI-H661 = test system: NCI-H661
In short: as §1

CAL-12T = test system: CAL-12T
In short: as §1

## CCN(CC)CCCCNc1ncc2cc(-c3cc(OC)cc(OC)c3)c(NC(=O)NC(C)(C)C)nc2n1 + COc1cc2c(Oc3ccc(NC(=O)C4(C(=O)Nc5ccc(F)cc5)CC4)cc3F)ccnc2cc1OCCCN1CCOCC1 [Foretinib] (partner 0.25 µM)
NCI-H1355; first compound 0.01 µM
  relative viability: 1.01
NCI-H1355; first compound 0.03162 µM
  relative viability: 0.967
NCI-H1355; first compound 0.1 µM
  relative viability: 1.01
NCI-H1355; first compound 0.3162 µM
  relative viability: 1.1
NCI-H1355; first compound 1 µM
  relative viability: 0.991
NCI-H520; first compound 0.01 µM
  relative viability: 0.677
NCI-H520; first compound 0.03162 µM
  relative viability: 0.834
NCI-H520; first compound 0.1 µM
  relative viability: 1.15
NCI-H520; first compound 0.3162 µM
  relative viability: 0.543
NCI-H520; first compound 1 µM
  relative viability: 0.326
NCI-H1755; first compound 0.01 µM
  relative viability: 0.986
NCI-H1755; first compound 0.03162 µM
  relative viability: 0.92
NCI-H1755; first compound 0.1 µM
  relative viability: 0.969
NCI-H1755; first compound 0.3162 µM
  relative viability: 0.936
NCI-H1755; first compound 1 µM
  relative viability: 0.882
PC-14; first compound 0.01 µM
  relative viability: 0.976
PC-14; first compound 0.03162 µM
  relative viability: 0.976
PC-14; first compound 0.1 µM
  relative viability: 1.08
PC-14; first compound 0.3162 µM
  relative viability: 1.07
PC-14; first compound 1 µM
  relative viability: 0.885
HCC-827; first compound 0.01 µM
  relative viability: 1.05
HCC-827; first compound 0.03162 µM
  relative viability: 1.01
HCC-827; first compound 0.1 µM
  relative viability: 1.19
HCC-827; first compound 0.3162 µM
  relative viability: 1.17
HCC-827; first compound 1 µM
  relative viability: 1.05
NCI-H1975; first compound 0.01 µM
  relative viability: 0.931
NCI-H1975; first compound 0.03162 µM
  relative viability: 0.956
NCI-H1975; first compound 0.1 µM
  relative viability: 1.29
NCI-H1975; first compound 0.3162 µM
  relative viability: 1.04
NCI-H1975; first compound 1 µM
  relative viability: 0.867
H3255; first compound 0.01 µM
  relative viability: 0.898
H3255; first compound 0.03162 µM
  relative viability: 0.915
H3255; first compound 0.1 µM
  relative viability: 1.04
H3255; first compound 0.3162 µM
  relative viability: 0.943
H3255; first compound 1 µM
  relative viability: 0.85
PC-3 [JPC-3]; first compound 0.01 µM
  relative viability: 1.08
PC-3 [JPC-3]; first compound 0.03162 µM
  relative viability: 1.07
PC-3 [JPC-3]; first compound 0.1 µM
  relative viability: 1.13
PC-3 [JPC-3]; first compound 0.3162 µM
  relative viability: 1.16
PC-3 [JPC-3]; first compound 1 µM
  relative viability: 1.04
LK-2; first compound 0.01 µM
  relative viability: 1.06
LK-2; first compound 0.03162 µM
  relative viability: 1.13
LK-2; first compound 0.1 µM
  relative viability: 1.66
LK-2; first compound 0.3162 µM
  relative viability: 0.962
LK-2; first compound 1 µM
  relative viability: 0.663
RERF-LC-KJ; first compound 0.01 µM
  relative viability: 0.893
RERF-LC-KJ; first compound 0.03162 µM
  relative viability: 0.901
RERF-LC-KJ; first compound 0.1 µM
  relative viability: 0.871
RERF-LC-KJ; first compound 0.3162 µM
  relative viability: 0.872
RERF-LC-KJ; first compound 1 µM
  relative viability: 0.941
NCI-H1563; first compound 0.01 µM
  relative viability: 0.921
NCI-H1563; first compound 0.03162 µM
  relative viability: 0.896
NCI-H1563; first compound 0.1 µM
  relative viability: 1.03
NCI-H1563; first compound 0.3162 µM
  relative viability: 0.907
NCI-H1563; first compound 1 µM
  relative viability: 0.748
NCI-H2342; first compound 0.01 µM
  relative viability: 1.19
NCI-H2342; first compound 0.03162 µM
  relative viability: 1.23
NCI-H2342; first compound 0.1 µM
  relative viability: 1.19
NCI-H2342; first compound 0.3162 µM
  relative viability: 1.03
NCI-H2342; first compound 1 µM
  relative viability: 1
NCI-H2405; first compound 0.01 µM
  relative viability: 1.05
NCI-H2405; first compound 0.03162 µM
  relative viability: 1.05
NCI-H2405; first compound 0.1 µM
  relative viability: 1.03
NCI-H2405; first compound 0.3162 µM
  relative viability: 1.07
NCI-H2405; first compound 1 µM
  relative viability: 1.04
NCI-H1734; first compound 0.01 µM
  relative viability: 0.863
NCI-H1734; first compound 0.03162 µM
  relative viability: 0.828
NCI-H1734; first compound 0.1 µM
  relative viability: 0.83
NCI-H1734; first compound 0.3162 µM
  relative viability: 0.943
NCI-H1734; first compound 1 µM
  relative viability: 0.694
EKVX; first compound 0.01 µM
  relative viability: 0.589
EKVX; first compound 0.03162 µM
  relative viability: 0.471
EKVX; first compound 0.1 µM
  relative viability: 0.781
EKVX; first compound 0.3162 µM
  relative viability: 0.949
EKVX; first compound 1 µM
  relative viability: 0.758
NCI-H322M; first compound 0.01 µM
  relative viability: 0.991
NCI-H322M; first compound 0.03162 µM
  relative viability: 0.946
NCI-H322M; first compound 0.1 µM
  relative viability: 1.08
NCI-H322M; first compound 0.3162 µM
  relative viability: 1.01
NCI-H322M; first compound 1 µM
  relative viability: 0.966
HCC-15; first compound 0.01 µM
  relative viability: 1.04
HCC-15; first compound 0.03162 µM
  relative viability: 1.19
HCC-15; first compound 0.1 µM
  relative viability: 1.03
HCC-15; first compound 0.3162 µM
  relative viability: 1.1
HCC-15; first compound 1 µM
  relative viability: 0.989
LCLC-97TM1; first compound 0.01 µM
  relative viability: 1.1
LCLC-97TM1; first compound 0.03162 µM
  relative viability: 0.94
LCLC-97TM1; first compound 0.1 µM
  relative viability: 1.03
LCLC-97TM1; first compound 0.3162 µM
  relative viability: 1.06
LCLC-97TM1; first compound 1 µM
  relative viability: 0.95
NCI-H2228; first compound 0.01 µM
  relative viability: 1.03
NCI-H2228; first compound 0.03162 µM
  relative viability: 1.01
NCI-H2228; first compound 0.1 µM
  relative viability: 1.35
NCI-H2228; first compound 0.3162 µM
  relative viability: 0.998
NCI-H2228; first compound 1 µM
  relative viability: 0.635
NCI-H1650; first compound 0.01 µM
  relative viability: 1.26
NCI-H1650; first compound 0.03162 µM
  relative viability: 1.11
NCI-H1650; first compound 0.1 µM
  relative viability: 1.1
NCI-H1650; first compound 0.3162 µM
  relative viability: 1.2
NCI-H1650; first compound 1 µM
  relative viability: 1.12
NCI-H661; first compound 0.01 µM
  relative viability: 1.07
NCI-H661; first compound 0.03162 µM
  relative viability: 1.04
NCI-H661; first compound 0.1 µM
  relative viability: 1.03
NCI-H661; first compound 0.3162 µM
  relative viability: 1.07
NCI-H661; first compound 1 µM
  relative viability: 1.02
CAL-12T; first compound 0.01 µM
  relative viability: 1.13
CAL-12T; first compound 0.03162 µM
  relative viability: 1.2
CAL-12T; first compound 0.1 µM
  relative viability: 1.35
CAL-12T; first compound 0.3162 µM
  relative viability: 1.23
CAL-12T; first compound 1 µM
  relative viability: 1.19
